Test results reported in publication PMC10810651, “Discovery of novel and potent CDK8 inhibitors for the treatment of acute myeloid leukaemia” (Journal of Enzyme Inhibition and Medicinal Chemistry, 2024).
Like-named read-outs stand apart in the source and are kept apart here.

What was measured:
[1] = test system: molm-13; assay: Antiproliferative CCK-8 assay, molm-13; type: cell-based; details: Homo sapiens; molm-13, CCK-8 assay, means ± SD; read-out: GC50 (the source's name)
Description: (§1) Compounds12, 13 and 30 were selected for further cell activity assessments based on the enzymatic activity assessment results. molm-13 and MV4-11(acute myeloid lineage leukaemia cells), MGC-803 (gastric cancer cell), MDA-MB-231(breast cancer cell), A375 (melanoma cell), A549 (lung cancer cell), HCT-116, SW-480 and HT-29 (colorectal cancer cells) were selected to evaluate antitumor activity in vitro, GES-1 (gastric mucosal epithelial cell) was selected to evaluate toxicity in vitro.
(§2) CO2 atmosphere incubator for 24 h. Then, medium with compound at the concentrations of 100, 20, 4, 0.8, 0.016 μM was added into each well for another 48 h and incubated with CCK-8 (10 μL) for 2 h at 37 °C. The absorbance value at 450 nm was measured by the microplate reader (PerkinElmer Envision). […]

[2] = Caco-2 permeability determination; type: in vitro ADME; details: human
[3] = test system: Caco-2; assay: Caco-2 permeability determination; type: in vitro ADME; details: Caco-2
[4] = test system: A375; assay: Antiproliferative CCK-8 assay, A375; type: cell-based; details: Homo sapiens, A-375; A375, CCK-8 assay, means ± SD; read-out: GC50 (the source's name)
Description: as §1, §2

[5] = molecular target: CYP 1A2 (Homo sapiens, UniProt P05177); assay: CYP inhibition activity, 1A2; type: in vitro ADME
Description: Table 7. CYP inhibition activity. | column: IC50 (μM) / 1A2

[6] = test system: STAT1 S727; assay: Phosphorylation of STAT1 S727, western blot; type: cell-based; details: HCT-116 cells, 1, 2, 4 μM, 12 h
Experimental: It has been reported that CDK8 could specifically target the transactivation domain of STAT1 at Ser727 phosphorylation. HCT-116 cells were treated with compounds 12 with different concentrations of 1 μM, 2 μM, 4 μM separately to verify compound 12 could inhibit the phosphorylation of STAT1 Ser727. […] It’s reported that CDK8 was also involved in S726 phosphorylation of STAT5 in AML cells.
Figure 6. Compound 12 inhibited phosphorylation of STAT1 S727 and STAT5 S726. (A) Compound 12 suppressed the phosphorylation of STAT1 S727 in a dose-dependent manner. HCT-116 cells were treated with compound for 12 h. (B) Compound 12 suppressed the phosphorylation of STAT5 S726 in a dose dependent manner. HL-60 cells were treated with or without compound for 12 h. The samples were analysed by Western blot.
1.7 The effect of compound on phosphorylation of STAT1 S727
HCT-116 cells were seeded into 60 mm cultural dishes at a density of 1.5×10^6 cells per dishes. […] Levels of total STAT1, phosphorylated STAT1 S727, Y701 and GAPDH were analyzed. […]
Levels of total STAT5, phosphorylated STAT5 S726 and GAPDH were analyzed.
The results were expressed as the means ± SEMs (SPSS software), and the differences between groups were evaluated using Turkey’s method (GraphPad Software). […]

[7] = molecular target: CDK8 (Homo sapiens, UniProt P49336); assay: Biotin-pulldown assay; type: binding; design: endogenous in cells; host or cells: HCT-116; details: HCT-116 or CDK8-transfected HEK293T cells; 2 μM biotinylated compound; 1, 2, 4 μM
Experimental: In previous study, a biotinylated compound with favourable CDK8 inhibition activity was designed and synthesized. Here, the pulldown assay was performed to determine compound 12 could bind CDK8. HCT-116 cells or HEK293T cells transfected with CDK8 plasmid labelled were treated with 2 μM biotinylated compound and compounds 12 with different concentrations of 1 μM, 2 μM, 4 μM separately.
CO2 atmosphere incubator for 24 h. Then, medium with compound at the concentrations of 100, 20, 4, 0.8, 0.016 μM was added into each well for another 48 h and incubated with CCK-8 (10 μL) for 2 h at 37 °C. The absorbance value at 450 nm was measured by the microplate reader (PerkinElmer Envision).
The kinase inhibition was detected by ADP-Glo™ Kinase Assay (Promega) using a black 384-well plate. The active CDK8 kinase was diluted in mixture (5 ng enzyme, 0.5 μg substrate, 50 μM DTT, 1 μL reaction buffer and added ddH2O to 3 μL each well) and the final ATP concentrations of was 50 μM. […] The data was collected by the microplate reader. […]
were broken by ultr asonic treatment and centrifuged at 12000 rpm for 20 min. The supernatant was analyzed by western blot. […]
After co-treated with 2 μM biotinylated compound and compound 12 for 12 h, HCT-116 cells were lysed with NP-40 containing PMSF and centrifuged at 14000 r for 30 min at 4 °C. […] The samples were analyzed by western blot.

[8] = test system: C57BL/6 mice; assay: Acute toxicity study; type: in vivo; details: 1000 mg/kg by gastric tube
Experimental: The safety of compound 12 in vivo was evaluated through an acute toxicity study on C57BL/6 mice. The compound 12 was administered by gastric tube at a dose of 1000 mg/kg. The normal group was given the same amount of normal saline. […] Finally, the mice were anaesthetised and sacrificed, and the main organs such as heart, liver, spleen, lung and kidney were detected through pathological section.

Chain of CDK8 (P49336 whole entry): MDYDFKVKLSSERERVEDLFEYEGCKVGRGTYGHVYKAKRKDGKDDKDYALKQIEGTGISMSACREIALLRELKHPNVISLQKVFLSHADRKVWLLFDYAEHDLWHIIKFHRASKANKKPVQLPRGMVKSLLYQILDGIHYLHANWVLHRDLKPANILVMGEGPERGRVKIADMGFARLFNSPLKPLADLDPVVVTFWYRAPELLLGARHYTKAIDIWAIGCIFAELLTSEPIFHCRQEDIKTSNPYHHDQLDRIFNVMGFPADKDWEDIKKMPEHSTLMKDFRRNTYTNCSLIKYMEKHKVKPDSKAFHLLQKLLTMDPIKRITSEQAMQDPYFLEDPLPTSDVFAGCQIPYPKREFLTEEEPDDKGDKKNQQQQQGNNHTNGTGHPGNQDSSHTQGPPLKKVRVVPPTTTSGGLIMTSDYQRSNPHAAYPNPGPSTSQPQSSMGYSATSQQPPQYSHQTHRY
Chain of CYP 1A2 (P05177 whole entry): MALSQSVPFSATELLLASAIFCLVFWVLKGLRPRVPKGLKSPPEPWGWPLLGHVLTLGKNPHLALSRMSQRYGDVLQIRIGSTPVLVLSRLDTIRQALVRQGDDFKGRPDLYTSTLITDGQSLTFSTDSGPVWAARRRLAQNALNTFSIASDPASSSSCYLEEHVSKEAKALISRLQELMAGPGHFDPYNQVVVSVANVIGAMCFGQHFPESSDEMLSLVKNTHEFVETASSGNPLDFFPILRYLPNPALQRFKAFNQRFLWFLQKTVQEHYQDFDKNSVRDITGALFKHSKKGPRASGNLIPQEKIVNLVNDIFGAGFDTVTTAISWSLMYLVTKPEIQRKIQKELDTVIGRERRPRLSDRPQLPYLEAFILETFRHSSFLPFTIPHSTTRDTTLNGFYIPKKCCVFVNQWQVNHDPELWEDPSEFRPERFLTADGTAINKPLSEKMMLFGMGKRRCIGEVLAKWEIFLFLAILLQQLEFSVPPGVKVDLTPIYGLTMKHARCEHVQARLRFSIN

Q: Which IC50 [1] does the source give for `NC(=O)c1cccc(-c2cnc3[nH]cc(-c4ccoc4)c3c2)c1` [Compound 12, 3-(3-(furan-3-yl)-1H-pyrrolo[2,3-b]pyridin-5-yl)benzamide] here?
A: Its IC50 is 20 ± 10 nM.

Q: And the efflux ratio ([2]; Caco-2)?
A: Its efflux ratio is 1.3.

Q: What about the recovery ([2]; Caco-2, Caco-2, A→B, read-out: Recovery A→B) of the same compound?
A: Its recovery is 107%.

Q: And the recovery ([2]; Caco-2, Caco-2, B→A, read-out: Recovery B→A)?
A: Its recovery is 108%.

Q: What about the Papp A→B ([2]; Caco-2, A→B) of the same compound?
A: The Papp A→B was 27 ×10⁻⁶ cm/s.

Q: What about the Papp B→A ([2]; Caco-2, B→A) of the same compound?
A: Its Papp B→A is 35.1 ×10⁻⁶ cm/s.

Q: And the “Permeability (in words)” value [3]?
A: Its value is “high permeability”.

Q: What about the IC50 [4] of the same compound?
A: Its IC50 is 1000 ± 230 nM.

Q: What about the IC50 [5] of the same compound?
A: The IC50 was > 50 µM.

Q: What about the “Phosphorylation of STAT1 S727” value [6] of the same compound?
A: Its value is “significantly inhibited in a dose-dependent manner”.

Q: What about the “Competition with biotinylated compound for binding to CDK8” value [7] of the same compound?
A: The value was “could inhibit the binding of biotinylated compound to CDK8”.

Q: And the “Physiological phenomena such as anorexia, drowsiness, seizures and hyperactivity” value ([8]; 7 days)?
A: Its value is “no obvious change”.

Q: What about the “Pathological section of heart, liver, spleen, lung and kidney (HE staining)” value ([8]; after 7 days) of the same compound?
A: Its value is “no diseased tissue”.
